{"source": "patent US20070270493A1", "about": "“Composition with Preventive or Improvement Effect on Stress-Induced Brain Function Impairment and Related Symptoms or Diseases” (priority 2004, published 2007)", "test_system": "mice subjected to restraint stress", "experiment": "Morris water maze learning test", "format": "in vivo, male ICR mice", "conditions": "mice after 6 hour restraint stress; TGA40S-containing diet from 3 weeks before, about 25 mg TGA40S (10 mg arachidonic acid) per mouse daily; five trials a day for 5 days; FIG. 1", "from_the_text": "The experimental groups consisted of 56 two- to three-month-old male ICR mice, divided into a control diet group (27 mice) and a TGA40S-containing diet group (29 mice), with the control diet or TGA40S-containing diet shown in Table 1 being given to each group for 3 weeks. Each group was further divided into non-restrained groups (non-restrained control diet group (13), non-restrained arachidonic acid (ARA) diet group (15)) and restrained groups (restrained control diet group (14), restrained ARA diet group ([…])). The restraining was accomplished using a wire mesh restraining tube, once for a 6 hour period three weeks after the start of feeding. The control diet or TGA40S-containing diet shown in Table 1 continued to be fed to each group for the remaining experiment period. The TGA40S used for the TGA40S-containing diet was the product obtained in Example 1. Since the daily ingestion was approximately 5 g per mouse, the daily intake of TGA40S was 25 mg per mouse. Also, since the total fatty acids bonded to the arachidonic acid-containing oils or fats (triglycerides) prepared in Example 1 included 40 wt % arachidonic acid, the daily intake of arachidonic acid was 10 mg per mouse. […] The time required for the mouse to reach the escape platform (escape latency time) was recorded as the learning index."}
{"smiles": "CCCCC/C=C\\C/C=C\\C/C=C\\C/C=C\\CCCC(=O)O", "note": "[arachidonic acid]", "values": [{"measurement": "learning ability (escape latency time, time required to reach the escape platform)", "result": "exhibits an improving effect against decline in learning ability or cognitive ability as a result of stress"}]}
